Test results: US20180125993A1 (BEIJING COTIMES BIOTECH COMPANY LIMITED, priority 2014, published 2018)

How the values were obtained:
[1] = test system: WI-38, HFL-1, HUV-EC-C, human hepatic differentiated cells; experiment: Cytotoxicity of HuCTB006 on human normal tissue cell lines; type: cell-based; conditions: 24 hours after the treatments
Text: Several human normal tissue cell lines, including human lung epithelial fibroblasts WI-38, human embryonic lung fibroblasts HFL-1, human umbilical vein epithelial cells HUV-EC-C, and human hepatic differentiated cells, which were derived from liver genitor cells (obtained from Peking University Third Hospital). […] The culture medium for WI-38 was MEM, and the culture medium for HFL-1 and HUV-EC-C was F-12K.

[2] = biological target: T1, DR4-His-EC (Homo sapiens, UniProt O00220); experiment: Binding specificity by chemiluminescent enzyme immunoassay (CLEIA); conditions: antibody 200, 40 and 8 ng/mL; 1 hour, 37° C.
T1 construct: His; made in house; host or cells: E. coli
T1 sequence (O00220 24-468): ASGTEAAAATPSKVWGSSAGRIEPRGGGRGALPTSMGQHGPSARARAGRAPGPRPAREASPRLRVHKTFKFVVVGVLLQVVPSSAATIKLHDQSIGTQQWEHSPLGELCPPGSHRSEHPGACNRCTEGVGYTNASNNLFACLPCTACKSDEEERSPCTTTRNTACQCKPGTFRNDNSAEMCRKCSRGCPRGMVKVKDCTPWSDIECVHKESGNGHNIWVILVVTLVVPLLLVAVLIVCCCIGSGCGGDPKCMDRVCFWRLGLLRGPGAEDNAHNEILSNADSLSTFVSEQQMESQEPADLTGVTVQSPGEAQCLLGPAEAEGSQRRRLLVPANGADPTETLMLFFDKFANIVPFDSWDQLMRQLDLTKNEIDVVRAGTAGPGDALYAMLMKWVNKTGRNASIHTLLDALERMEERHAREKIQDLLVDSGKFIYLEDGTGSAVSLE
Procedure: The binding specificity of HuCTB006 was evaluated by chemiluminescent enzyme immunoassay (CLEIA).
HuCTB006 was diluted into 200, 40 and 8 ng/mL and then added to the wells. After 1 hour incubation in 37° C., the plate was washed. The binding of HuCTB006 with immobilized antigens was detected with HRP labeled secondary antibody and a substrate solution.

[3] = test system: 7901; experiment: In vitro cytotoxic sensitivity of CTB006; type: cell-based, human; conditions: 7901, Stomach cancer
[4] = test system: BT474; experiment: In vitro cytotoxic sensitivity of CTB006; type: cell-based, human; conditions: BT474, Breast cancer
[5] = test system: Colo205; experiment: Human colon cancer Colo205 subcutaneous model (Day 28 after treatment); type: in vivo, nude mice; conditions: for TGI calculated using the tumor volume / TGI calculated using the tumor weights: repeated experiment
Procedure: Tumor cells (i.e., MIA-PaCa-2, WiDr, H2122, colo205) were inoculated in nude mice's flank at 5×10^6 cells per mouse. The mice were grouped when the average volume of tumors reached about 100˜200 mm^3. “QW”=weekly dose. “Q3d”=dosed every third day. “BiW”=biweekly.
The bodyweight and major/minor axis of the mice were measured twice a week, and the tumor volumes were calculated using the formula: Tumor volume=1/2×major axis[…]. […] “T” represents average tumor volume of the experimental group (cm^3), and “C” represents average tumor volume of the control group (cm^3). The animals were monitored at all times. The bodyweight and major/minor axis or mice were measured twice a week.
Tumor volumes were represented with average±standard error. […] P<0.05 represents significant difference.

[6] = test system: N87; experiment: In vitro cytotoxic sensitivity of CTB006; type: cell-based, human; conditions: N87, Stomach cancer
[7] = test system: BT-20; experiment: In vitro cytotoxic sensitivity of CTB006; type: cell-based, human; conditions: BT-20, Breast cancer
[8] = test system: lung cancer, CS225, 1#; experiment: Patients primary tumor tissue subcutaneous model (Day 37 after treatment); type: in vivo, nude mice; conditions: HuCTB006 10 mg/kg i.v. QW × 5w
Text: Fresh primary tumor tissues from patients were implanted in NOD/SCID mice's flank, which developed into a primary tumor, which was then transferred to the nude mice's flank to allow the tumor reaching an exponential growth phase, and the tumor was named 1# tumor, and so on. When the tumor volume and number reached passage requirements, they were implanted into the right flank of nude mice. When the tumors' average volumes reached 100-200 mm^3, the mice were grouped.
The bodyweight and major/minor axis of mice were measured twice a week, and Tumor Growth Inhibition (TGI) and tumor volume were calculated same as in 5.1.5. In addition, to evaluate the synergetic effect of drug combination in tumor growth, Jin Zhengjun Q value judgment method was used with the follow formula: Q=Ea+b/(Ea+Eb−Ea×Eb). Ea+b is the inhibition ratio of drug combination, Ea and Eb are the inhibition ratio of each of drug treatment when it is administered alone. […] The animals were monitored, and when the experiments were concluded, mice were sacrificed and tumors were extracted and weighted. All the animal experiments confer to the regulations of animal's welfare and the management of experimental animal usage.
Tumor volumes were represented with average±standard error. Data analysis was done using Spss16.0, One-Way ANOVA, LSD (homogeneity of variance) or Dunnett T3 (non-homogeneity of variance). […] P<0.05 represents significant difference.

[9] = test system: H460; experiment: In vitro cytotoxic sensitivity of CTB006; type: cell-based, human; conditions: H460, Lung cancer
[10] = test system: ZR-75-30; experiment: In vitro cytotoxic sensitivity of CTB006; type: cell-based, human; conditions: ZR-75-30, Breast cancer
[11] = test system: MDA-MB-361; experiment: In vitro cytotoxic sensitivity of CTB006; type: cell-based, human; conditions: MDA-MB-361, Breast cancer
[12] = test system: OVCA3; experiment: In vitro cytotoxic sensitivity of CTB006; type: cell-based, human; conditions: OVCA3, Ovarian cancer
[13] = test system: Daudi; experiment: In vitro cytotoxic sensitivity of CTB006; type: cell-based, human; conditions: B cell lymphoma
[14] = HuCTB006 0.2 mg/kg i.v. QW × 4W
[15] = HuCTB006 0.2 mg/kg i.v. QW × 4W, 0.2 mg/kg
[16] = HuCTB006 0.6 mg/kg i.v. QW × 4W
[17] = HuCTB006 1.8 mg/kg i.v. QW × 4W
[18] = HuCTB006 5.4 mg/kg i.v. QW × 4W

Substance: HuCTB006: Monospecific humanized chimeric monoclonal antibody directed to TRAIL-R2 receptor; heavy chain SEQ ID NO: 14, light chain SEQ ID NO: 12
- cytotoxicity on human normal tissue cells [1]: no cytotoxicity
- cross-reaction with coated antigen [2]: no cross-reaction
- In vitro cytotoxic sensitivity of CTB006 [3]: Non-responder
- In vitro cytotoxic sensitivity of CTB006 [4]: Non-responder
- T/C % (Calculated using tumor volume) [5, 14]: 66.90%
- Time of tumor volume changed significantly [5, 14]: 10 Days after first treatment
- Tumor Volume Mean ± SEM [5, 14]: 1.24 ± 0.20 cm^3
- Tumor weight Mean ± SEM [5, 14]: 0.84 ± 0.14 g
- TGI (Calculated using tumor volume) [5, 15]: 35.62%
- TGI (Calculated using tumor weight) [5, 15]: 33.30%
- T/C % (Calculated using tumor volume) [5, 16]: 14.41%
- Tumor Volume Mean ± SEM [5, 16]: 0.29 ± 0.13 cm^3
- Tumor weight Mean ± SEM [5, 16]: 0.20 ± 0.10 g
- T/C % (Calculated using tumor volume) [5, 17]: 19.91%
- Tumor Volume Mean ± SEM [5, 17]: 0.38 ± 0.16 cm^3
- Tumor weight Mean ± SEM [5, 17]: 0.23 ± 0.12 g
- T/C % (Calculated using tumor volume) [5, 18]: 14.80%
- Time of tumor volume changed significantly [5, 18]: 7~10^2 Days after first treatment
- Tumor Volume Mean ± SEM [5, 18]: 0.28 ± 0.10 cm^3
- Tumor weight Mean ± SEM [5, 18]: 0.15 ± 0.07 g
- Bodyweights ([5]; all HuCTB006 treatment groups): did not show any notably changes
- Tumor regression ([5]; first experiment, treatment groups): four animals of HuCTB006 treatment groups showed tumor regression
- TGI calculated using the tumor volume ([5]; HuCTB006 0.2 mg/kg): 56.16%
- TGI calculated using the tumor weights ([5]; HuCTB006 0.2 mg/kg): 58.68%
- TGI calculated using the tumor volume ([5]; HuCTB006 0.6 mg/kg): 79.75%
- TGI calculated using the tumor weights ([5]; HuCTB006 0.6 mg/kg): 82.34%
- TGI calculated using the tumor volume ([5]; HuCTB006 1.8 mg/kg): 93.65%
- TGI calculated using the tumor weights ([5]; HuCTB006 1.8 mg/kg): 94.33%
- TGI calculated using the tumor volume ([5]; HuCTB006 5.4 mg/kg): 87.12%
- TGI calculated using the tumor weights ([5]; HuCTB006 5.4 mg/kg): 89.90%
- In vitro cytotoxic sensitivity of CTB006 [6]: Non-responder
- In vitro cytotoxic sensitivity of CTB006 [7]: Non-responder
- T/C % (Calculated using tumor volumes) [8]: 79.86%
- Time of tumor volume changed significantly [8]: 16
- Tumor Volume Mean ± SEM [8]: 0.86 ± 0.19 cm^3
- Tumor weight Mean ± SEM [8]: 0.89 ± 0.23 g
- TGI (Calculated using tumor volumes) ([8]; 10 mg/kg): 19.65%
- TGI (Calculated using tumor weight) ([8]; 10 mg/kg): −25.23%
- In vitro cytotoxic sensitivity of CTB006 [9]: Partial-responder
- In vitro cytotoxic sensitivity of CTB006 [10]: Non-responder
- In vitro cytotoxic sensitivity of CTB006 [11]: Non-responder
- In vitro cytotoxic sensitivity of CTB006 [12]: Non-responder
- In vitro cytotoxic sensitivity of CTB006 [13]: Non-responder
